Counter-ions that a name gives are not always drawn.
Assay: Dispersion time of enalapril maleate in alcohol/water liquids
Type: physicochemical
Details: for Dispersion Time: 50 g in 200 mL, 200 rpm
Experimental: Enalapril maleate (50 grams) was added to 200 mL of liquid. The liquid ranged from 100% alcohol/0% water to 0% alcohol/100% water (see Table 1). The solutions were stirred at 200 rpm at room temperature using a Lightning Mixer (General Signal Controls, Rochester, N.Y.) with the mixing blade 1 cm from the bottom of the beaker. Enalapril maleate was considered “dispersed” when all of the drug powder was wetted and had become immersed in the liquid.

## CCOC(=O)[C@H](CCc1ccccc1)N[C@@H](C)C(=O)N1CCC[C@H]1C(=O)O [enalapril maleate]
20 mg/ud in SD3A denatured alcohol (50 mg/ud), stirring at 500 rpm (preparation of Formula I)
  Time to full dispersion in alcohol: less than 10 seconds
25%/75% alcohol/water, full value 1 minute, 15 seconds (seconds in next row)
  Dispersion Time: 60 s
50%/50% alcohol/water, room temperature
  Dispersion Time: 45 s
75%/25% alcohol/water, room temperature
  Dispersion Time: 30 s
85%/15% alcohol/water, room temperature
  Dispersion Time: 28 s
100%/0% alcohol/water, room temperature
  Dispersion Time: 27 s

Source: patent publication US20040157911A1, “Storage-stable and bio-stable formulations of ace inhibitors, and methods for preparation thereof” (priority 1999, published 2004)
